Measurements published in paper PMC12362585, “Development and Preclinical Characterization of [^18F]H3-2406 and [^18F]H3-2407 for Positron Emission Tomography Imaging of the Histamine Subtype‑3 Receptor” (Journal of Medicinal Chemistry, 2025).

Assays:
H3R [1] = biological target: T1, H3R (Homo sapiens, UniProt Q9Y5N1); assay: H3R competitive radioligand binding assay using [^3H]AZ13582963; settings: competitive binding vs [^3H]AZ13582963; for Ki: read-out: H3R K i
T1 construct: Gifford Bioscience (contract laboratory that ran the assay)

[2] = Log D by shake-flask method; assay type: physicochemical; settings: n-octanol/PBS
Description: To evaluate the binding affinities of compounds 1–9, competitive radioligand binding assays were conducted using [^3H]-AZ13582963 [4-(1S,2S)-2-(4-cyclobutylpiperazine-1-carbonyl)-cyclopropyl)-N-methyl-[2-^3 H]-benzamide]. […]. […]. Further, ACD Percepta predictions indicated these compounds are likely to cross the blood-brain barrier (BBB), as indicated by a log BB > −1 and a multiparameter optimization (MPO) score >4.0. High selectivity toward H3R over other CNS targets is essential for effective H3R PET imaging. Therefore, off-target screenings of compounds 2, 3, and 4 were conducted against various CNS receptors, G protein-coupled receptors (GPCRs), transporters, and ion channels at 10 μM (Figure S1). […]. Sigma-1 receptors, crucial for ion channel function and associated with learning, memory, and pain, , have shown synergy with H3R antagonists, including PF-03654746 and ABT-239, potentially enhancing in vivo efficacy.
The lipophilicity was measured according to previously reported methods. , In brief, PBS and n-octanol were premixed prior to the experiment. A solution containing 0.2 MBq of [^18F]3 or [^18F]4, PBS (3 mL) and n-octanol (3 mL) were prepared in a vial and vortexed for 5 min. The PBS and n-octanol layers were then separated and transferred into a centrifuge tube, followed centrifugation at 12,000 rpm for 5 min. Then PBS (0.5 mL) and n-octanol (0.05 mL) were weight and measured the radioactivity on a γ counter (PerkinElmer Wizard). The Log D values of [ ^18F]3 and [^18F]4 were calculated using the following formula: LogD=Log[(radioactivityn‐octanol/weightn‐octanol)/(radioactivityPBS/weightPBS)]

sigma-1 receptor [3] = biological target: T2, sigma-1 receptor (Homo sapiens, UniProt Q99720); assay: sigma 1 binding assay; settings: for Ki: read-out: sigma-1 K i; for selectivity of H3R over sigma-1: ratio of sigma-1 K i to H3R K i
sigma-1 receptor [4] = biological target: T2, sigma-1 receptor; assay: Off-target screening at 10 μM, sigma-1; assay type: binding
H3R [5] = biological target: T3, H3R (Rattus norvegicus, UniProt Q9QYN8); assay: In vitro autoradiography on rat brain sections; assay type: binding, SD rat
T3 construct: The brains of SD rat were sectioned into 15 μm slices; from tissue; host or cells: SD rat brain sections
Description: To validate the target specificity and selectivity, in vitro autoradiography experiments were conducted using [^18F]3 and [^18F]4 on rat brain sections. […] Furthermore, pretreatment with unlabeled compound 3 (10 μM) led to a signal reduction of over 90% in the brain. […] This discrepancy is likely attributable to additional off-target binding of [^18F]3, which is further supported by high uptake in the cerebellum – a region with low H3R expression. […] The high uptake in the cerebellum may be attributed to nonspecific binding to unidentified CNS targets. […] Nonetheless, the results support further in vivo PET evaluation to better understand their binding profiles and evaluate their potential for H3R imaging – particularly in regions with low sigma-1 abundance.
The ARG was measured according to previously reported methods. , The brains of SD rat were sectioned into 15 μm slices and stored in −80 °C. For each experiment, the brain slices allowed them to warm to room temperature and then incubated in Tris-HCl buffer (50 mM, containing 0.1% bovine serum albumin) for 10 min. The slices were incubated with [^18F]3 or [^18F]4 (0.037 MBq/mL) in the presence of either DMSO (baseline study), GSK189254 (10 μM, blocking study), and unlabeled 3 or 4 (10 μM, blocking study) at room temperature for 30 min. Following incubation, the brain slices were washed three times with cold Tris-HCl buffer (50 mM) for 5 min each, and then dipped in water 2 times for 5 s. The brain slices were dried under cold air and exposed to a Phosphor Screen (BAS IP MS2025, Cytiva) for 2 h. The radioactivity and imaging were captured using an Amersham Typhoon 5 (Cytiva) and the data were analyzed using ImageJ software.

H3R [6] = biological target: T4, H3R (Mus musculus, UniProt P58406); assay: Dynamic PET imaging in CD1 mice, baseline and H3R antagonist blocking; assay type: in vivo
T4 construct: dynamic PET imaging studies were conducted in CD1 mice; from tissue; host or cells: brain of living CD1 mice
Description: To elucidate the in vivo brain uptake of [^18F]3 and [^18F]4, dynamic PET imaging studies were conducted in CD1 mice (an outbred strain of immunocompetent mice commonly used for pharmacokinetic and biodistribution studies) for 60 min. The results, which include summed PET images (0–60 min), whole-brain time-activity curves (TACs), and area under the curve (AUC) for both radioligands, are depicted in Figures and . At baseline, [^18F]3 rapidly crossed the BBB following intravenous injection, reaching peak whole-brain uptake with a standardized uptake value (SUV) value of 2.4 at 2.3 min. This was followed by a gradual washout and reached a SUV of 1.87 by 60 min. To evaluate the binding characteristics of [^18F]3, elective H3R antagonists with distinct structural scaffolds, GSK189254, enerisant, and cipralisant, were used as blocking agents. […] Quantification of specific tracer binding was performed using volume of distribution (V T) values, derived from compartmental modeling and an image-derived input function (IDIF). […] While these findings support the utility of [^18F]3 for in vivo studies, we acknowledge the inherent limitations of IDIF, including the lack of metabolite correction and potential inaccuracies in capturing early phase kinetics.
PET imaging was conducted following previously reported methods. CD1 mice (5–6 weeks) were anesthetized with 1.5% (v/v) isoflurane during the scan. A dose of 3.0 MBq of [^18F]3 or [^18F]4 was intravenously injected into the tail vein, and a dynamic scan was acquiring using a PET scanner (MOLECUBES, beta-cube) for 60 min. In the blocking studies, GSK189254 (3 mg/kg) in 0.1 mL of saline containing 5% ethanol and 5% Tween-80 was preinjected for 10 min prior to the injection of PET radioligands. The results were reconstructed and analyzed by PMOD 4.3 software.
Quantification of specific tracer binding was performed using volume of distribution (VT) values, derived from compartmental modeling and an image-derived input […]
significant reduction in H3R-rich brain regions such as the cortex and striatum under blocking conditions with GSK189254, enerisant, and cipralisant, confirming the specificity of [18F]3 binding (Table S1).
Table S1. Estimation of V T values by Logan analysis in mice with [ 18F]3 at baseline, GSK189254-blocking (3 mg/kg), enerisant-blocking (3 mg/kg), and cipralisant-blocking (3 mg/kg) conditions.
Group Baseline GSK189254 Enerisant Cipralisant blocking blocking blocking

[7] = system: CNS receptors, GPCRs, transporters, and ion channels; assay: Off-target screening panel, CNS target selectivity; assay type: binding; settings: H3R against most CNS targets
[8] = biological target: 5-hydroxytryptamine receptor 2A (5-HT2A) (Homo sapiens, UniProt P28223); assay: Off-target screening at 10 μM, 5-HT2A; assay type: binding; settings: read-out: inhibition of 5-HT2A
5-HT2C [9] = biological target: T5, 5-HT2C (Homo sapiens, UniProt P28335); assay: 5HT2C binding assay; settings: read-out: 5-HT2C K i
T5 sequence (P28335 33-458): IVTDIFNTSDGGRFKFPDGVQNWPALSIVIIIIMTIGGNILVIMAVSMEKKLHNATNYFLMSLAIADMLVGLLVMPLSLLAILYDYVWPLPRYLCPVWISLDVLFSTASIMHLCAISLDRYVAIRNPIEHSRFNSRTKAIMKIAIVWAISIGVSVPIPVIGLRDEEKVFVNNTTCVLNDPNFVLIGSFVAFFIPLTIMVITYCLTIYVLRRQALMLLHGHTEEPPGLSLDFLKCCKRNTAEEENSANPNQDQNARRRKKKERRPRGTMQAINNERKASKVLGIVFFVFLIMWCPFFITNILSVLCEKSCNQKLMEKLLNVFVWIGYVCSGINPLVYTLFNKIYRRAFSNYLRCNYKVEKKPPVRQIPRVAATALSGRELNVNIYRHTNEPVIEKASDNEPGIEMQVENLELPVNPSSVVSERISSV

5-HT2C [10] = biological target: T5, 5-HT2C; assay: Off-target screening at 10 μM, 5-HT2C; assay type: binding; settings: read-out: inhibition of 5-HT2C
sigma-2 = sigma-2 (Homo sapiens, UniProt Q5BJF2); assay: Off-target screening at 10 μM, sigma-2; assay type: binding
Chain of sigma-2 (Q5BJF2 whole entry): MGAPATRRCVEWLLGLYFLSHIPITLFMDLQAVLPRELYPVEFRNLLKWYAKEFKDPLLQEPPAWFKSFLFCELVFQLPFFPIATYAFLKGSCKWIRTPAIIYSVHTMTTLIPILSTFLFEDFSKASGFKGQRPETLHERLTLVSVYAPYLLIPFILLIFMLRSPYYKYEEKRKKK

T1 sequence (Q9Y5N1 whole entry, species assumed): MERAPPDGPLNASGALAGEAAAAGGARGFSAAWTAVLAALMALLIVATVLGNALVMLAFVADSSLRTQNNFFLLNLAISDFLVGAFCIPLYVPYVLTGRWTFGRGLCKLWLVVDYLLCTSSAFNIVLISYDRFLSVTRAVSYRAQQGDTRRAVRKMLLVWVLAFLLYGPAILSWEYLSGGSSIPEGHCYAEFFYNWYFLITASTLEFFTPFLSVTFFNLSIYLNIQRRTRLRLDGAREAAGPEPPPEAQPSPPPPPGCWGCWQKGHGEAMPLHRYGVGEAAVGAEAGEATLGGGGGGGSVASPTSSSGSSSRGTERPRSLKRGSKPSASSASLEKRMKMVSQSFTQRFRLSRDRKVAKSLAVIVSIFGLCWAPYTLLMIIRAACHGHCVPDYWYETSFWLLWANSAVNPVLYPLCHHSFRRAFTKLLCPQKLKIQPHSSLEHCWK
T4 sequence (P58406 whole entry): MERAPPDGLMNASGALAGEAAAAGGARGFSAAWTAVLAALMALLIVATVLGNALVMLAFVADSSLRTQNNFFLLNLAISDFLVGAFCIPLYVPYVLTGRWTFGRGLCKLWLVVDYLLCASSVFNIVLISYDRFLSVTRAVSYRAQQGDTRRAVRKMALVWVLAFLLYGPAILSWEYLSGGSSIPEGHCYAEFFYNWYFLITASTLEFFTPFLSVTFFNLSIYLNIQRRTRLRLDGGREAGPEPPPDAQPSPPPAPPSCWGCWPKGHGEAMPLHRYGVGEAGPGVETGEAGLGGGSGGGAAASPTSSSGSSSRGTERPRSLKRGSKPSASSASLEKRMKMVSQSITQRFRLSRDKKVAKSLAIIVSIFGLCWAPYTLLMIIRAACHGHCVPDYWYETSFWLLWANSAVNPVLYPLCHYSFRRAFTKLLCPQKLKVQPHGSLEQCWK
T2 sequence (Q99720 whole entry, species assumed): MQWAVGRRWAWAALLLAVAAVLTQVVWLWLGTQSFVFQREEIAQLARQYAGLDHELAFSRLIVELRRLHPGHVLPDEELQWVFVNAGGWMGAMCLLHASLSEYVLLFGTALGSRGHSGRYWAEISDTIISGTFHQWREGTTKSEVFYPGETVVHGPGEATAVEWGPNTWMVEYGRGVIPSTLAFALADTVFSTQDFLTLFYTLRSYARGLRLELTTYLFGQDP
T3 sequence (Q9QYN8 whole entry): as the sequence (P58406 whole entry) above, with A15T, T286A, G290A, H387R, V389I counted along it
Chain of 5-hydroxytryptamine receptor 2A (5-HT2A) (P28223 whole entry, species assumed): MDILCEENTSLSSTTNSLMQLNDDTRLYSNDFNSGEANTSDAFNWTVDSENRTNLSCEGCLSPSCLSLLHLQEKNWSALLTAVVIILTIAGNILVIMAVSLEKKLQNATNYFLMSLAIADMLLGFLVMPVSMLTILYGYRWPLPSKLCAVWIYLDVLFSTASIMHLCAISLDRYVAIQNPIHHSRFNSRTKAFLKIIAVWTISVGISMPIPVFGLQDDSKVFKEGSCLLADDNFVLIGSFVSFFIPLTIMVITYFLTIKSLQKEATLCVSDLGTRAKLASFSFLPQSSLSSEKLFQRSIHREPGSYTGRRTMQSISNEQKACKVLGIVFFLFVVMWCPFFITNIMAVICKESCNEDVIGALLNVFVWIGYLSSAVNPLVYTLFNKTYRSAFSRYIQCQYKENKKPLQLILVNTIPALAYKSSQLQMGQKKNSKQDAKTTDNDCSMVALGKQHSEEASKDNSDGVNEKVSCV

| SMILES | IC50 (H3R [1]) [nM] | Ki (H3R [1]) [nM] | logD [2] | Ki (sigma-1 receptor [3]) [nM] | inhibition at 10 µM (sigma-1 receptor [4]) [%] | other results |
| --- | --- | --- | --- | --- | --- | --- |
| [11CH3]NC(=O)c1ccc([C@H]2C[C@@H]2C(=O)N2CCN(C3CCC3)CC2)cc1 [AZD13153556, reference compound] | 23.5 | – | – | – | – | – |
| O=C([C@H]1C[C@@H]1c1ccc(F)cc1)N1CCN(C2CCC2)CC1 [Compound 2, (4-Cyclobutylpiperazin-1-yl)((1S,2S)-2-(4-fluorophenyl)cyclopropyl)methanone] | – | – | 2.76 | 1.61 | 98.1 | – |
| O=C([C@H]1C[C@@H]1c1ccc([18F])cc1)N1CCN(C2CCCCC2)CC1 [[^18F]4] | – | – | 3.35 | – | – | reduction in radioactivity across brain regions, GSK189254 blocking (H3R [5]; GSK189254 10 μM): 38.7–68.2%; signal reduction, self-blocking with unlabeled compound (H3R [5]; unlabeled 3 or 4 at 10 μM): 66.6–78.8%; whole-brain signal reduction based on AUC, GSK189254 blocking (H3R [6]; GSK189254 3 mg/kg, 0–60 min): did not yield a significant reduction; time of peak whole-brain uptake (H3R [6]; baseline, CD1 mice): 4.3 min; whole-brain uptake at 60 min (H3R [6]; baseline, CD1 mice): 1.77 SUV; peak whole-brain uptake (H3R [6]; baseline, intravenous injection, CD1 mice): 1.83 SUV; reduction in whole-brain uptake from peak after 60 min dynamic scan (H3R [6]; baseline, washout): 3.3% |
| O=C([C@H]1C[C@@H]1c1ccc(F)cc1)N1CCN(C2CCCC2)CC1 [Compound 3, (4-Cyclopentylpiperazin-1-yl)((1S,2S)-2-(4-fluorophenyl)cyclopropyl)methanone] | – | – | 2.82 | 199 | 93.2 | selectivity of H3R over sigma-1 (sigma-1 receptor [3]): 69 fold; CNS target selectivity [7]: over 300 fold; inhibition at 10 µM [8]: 64.5%; Ki (5-HT2C [9]): > 1000 nM |
| O=C([C@H]1C[C@@H]1c1ccc(F)cc1)N1CCN(C2CCCCC2)CC1 [Compound 4, (4-Cyclohexylpiperazin-1-yl)((1S,2S)-2-(4-fluorophenyl)cyclopropyl)methanone] | – | – | 3.35 | 1280 | 94.4 | inhibition at 10 µM (5-HT2C [10]): 80.3%; selectivity of H3R over sigma-1 (sigma-1 receptor [3]): 407 fold; CNS target selectivity [7]: over 300 fold; inhibition at 10 µM [8]: 59%; inhibition at 10 µM (sigma-2): 93.6%; Ki (5-HT2C [9]): > 1000 nM |
| O=C([C@H]1C[C@@H]1c1ccc(-c2ccc([18F])nc2)cc1)N1CCN(C2CCC2)CC1 [[^18F]H3-2404, reference compound] | – | 10.2 | – | – | – | – |

Second part, led by results:

| IC50 (H3R [1]) [nM] | Ki (H3R [1]) [nM] | SMILES | logD [2] | Ki (sigma-1 receptor [3]) [nM] | inhibition at 10 µM (sigma-1 receptor [4]) [%] | other results |
| --- | --- | --- | --- | --- | --- | --- |
| > 1000 | > 1000 | O=C([C@H]1C[C@@H]1c1ccc(F)cc1)N1CCN(C2CCCCCC2)CC1 [Compound 5, (4-Cycloheptylpiperazin-1-yl)((1S,2S)-2-(4-fluorophenyl)cyclopropyl)methanone] | – | – | – | – |
| > 1000 | > 1000 | O=C([C@H]1C[C@@H]1c1ccc(F)cc1)N1C[C@@H]2CN(C3CCC3)C[C@@H]2C1 [Compound 8, ((3aR,6aS)-5-Cyclobutylhexahydropyrrolo[3,4-c]pyrrol-2(1H)-yl)((1S,2S)-2-(4-fluorophenyl)cyclopropyl)methanone] | – | – | – | – |
| > 1000 | > 1000 | O=C([C@H]1C[C@@H]1c1ccc(F)cc1)N1CC2(C1)CN(C1CCC1)C2 [Compound 6, (6-Cyclobutyl-2,6-diazaspiro[3.3]heptan-2-yl)((1S,2S)-2-(4-fluorophenyl)cyclopropyl)methanone] | – | – | – | – |
| > 1000 | > 1000 | O=C([C@H]1C[C@@H]1c1ccc(F)cc1)N1C[C@@H]2C[C@H]1CN2C1CCC1 [Compound 7, ((1S,4S)-5-Cyclobutyl-2,5-diazabicyclo[2.2.1]heptan-2-yl)((1S,2S)-2-(4-fluorophenyl)cyclopropyl)methanone] | – | – | – | – |
